Measurements published in ChEMBL document CHEMBL4024734, “Design, synthesis, biological evaluation and molecular docking studies of novel 3-aryl-4-anilino-2H-chromen-2-one derivatives targeting ERα as anti-breast cancer agents” (Bioorg Med Chem Lett, 2017).

Legend:
[1] = test system: MCF7; assay: Antiproliferative activity against ER positive human MCF7 cells after 48 hrs by MTT assay; format: functional, cell-based; conditions: MCF7, 48 h
[2] = test system: Ishikawa; assay: Antiproliferative activity against human Ishikawa cells after 48 hrs by MTT assay; format: functional, cell-based
[3] = target: T1, Estrogen receptor (Homo sapiens) (UniProt P03372); assay: Displacement of fluoromone from full length recombinant human estrogen receptor alpha expressed in Spodoptera frugiperda at 100 uM measured after 2 hrs by fluorescence polarization assay relative to control
T1 sequence (whole entry): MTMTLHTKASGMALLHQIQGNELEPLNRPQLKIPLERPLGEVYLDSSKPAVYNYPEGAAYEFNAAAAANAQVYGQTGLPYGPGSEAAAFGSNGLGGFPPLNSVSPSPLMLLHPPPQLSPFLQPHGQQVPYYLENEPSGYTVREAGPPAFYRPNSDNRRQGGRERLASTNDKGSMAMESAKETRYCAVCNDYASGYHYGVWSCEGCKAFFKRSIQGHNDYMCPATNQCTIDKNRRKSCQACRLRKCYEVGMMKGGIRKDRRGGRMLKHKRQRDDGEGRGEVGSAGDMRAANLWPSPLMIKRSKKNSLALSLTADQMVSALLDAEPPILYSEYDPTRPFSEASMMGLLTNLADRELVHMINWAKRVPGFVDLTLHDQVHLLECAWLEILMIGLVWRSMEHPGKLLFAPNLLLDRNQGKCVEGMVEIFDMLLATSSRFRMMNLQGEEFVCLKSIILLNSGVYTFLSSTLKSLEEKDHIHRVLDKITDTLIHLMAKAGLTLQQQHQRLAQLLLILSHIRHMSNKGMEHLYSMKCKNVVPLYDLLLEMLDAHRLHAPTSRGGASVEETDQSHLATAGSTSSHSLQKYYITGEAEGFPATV

[4] = test system: MCF7; assay: Potency index, ratio of tamoxifen IC50 to compound IC50 against human MCF7 cells; format: functional

SMILES	IC50 [1] [µM]	RBA [3] [%]	IC50 [2] [µM]	Ratio IC50 [4]
COc1ccc(-c2c(Nc3ccc(OCCN4CCN(C)CC4)cc3)c3ccc(OC)cc3oc2=O)cc1	12.4		15.2	
COc1ccc(-c2c(Nc3ccc(OCCN(C)C)cc3)c3ccccc3oc2=O)cc1	8.76		11.8	
COc1ccc(-c2c(Nc3ccc(OCCN(C)C)cc3)c3ccc(OC)cc3oc2=O)cc1	8.32		12.2	
COc1ccc(-c2c(Nc3ccc(OCCN4CCOCC4)cc3)c3ccc(OC)cc3oc2=O)cc1	> 100	24	> 100	
COc1ccc(-c2c(Nc3ccc(OCCN4CCCCC4)cc3)c3ccc(O)cc3oc2=O)cc1	7.31		8.43	
COc1ccc(-c2c(Nc3ccc(OCCN4CCN(C)CC4)cc3)c3ccc(O)cc3oc2=O)cc1	17.6		19.4	
COc1ccc(-c2c(Nc3ccc(OCCN4CCCC4)cc3)c3ccccc3oc2=O)cc1	6.21		9.3	
COc1ccc(-c2c(Nc3ccc(OCCN4CCCC4)cc3)c3ccc(OC)cc3oc2=O)cc1	6.51		9.39	
COc1ccc(-c2c(Nc3ccc(OCCN4CCCC4)cc3)c3ccc(O)cc3oc2=O)cc1	8.42		11.8	
CCN(CC)CCOc1ccc(Nc2c(-c3ccc(OC)cc3)c(=O)oc3cc(OC)ccc23)cc1	10.2		8.84	

The next lines start with results.

IC50 [1] [µM]	RBA [3] [%]	SMILES	IC50 [2] [µM]	Ratio IC50 [4]
4.52		COc1ccc(-c2c(Nc3ccc(OCCN4CCCCC4)cc3)c3ccc(OC)cc3oc2=O)cc1	11.6	3
8.81		CCN(CC)CCOc1ccc(Nc2c(-c3ccc(OC)cc3)c(=O)oc3cc(O)ccc23)cc1	14.8	
7.57		CCN(CC)CCOc1ccc(Nc2c(-c3ccc(OC)cc3)c(=O)oc3ccccc23)cc1	10.8	
47.5	17	COc1ccc(-c2c(Nc3ccc(OCCN4CCOCC4)cc3)c3ccccc3oc2=O)cc1	49.5	
> 100		COc1ccc(-c2c(Nc3ccc(OCCN4CCOCC4)cc3)c3ccc(O)cc3oc2=O)cc1	> 100	
15.6		COc1ccc(-c2c(Nc3ccc(OCCN4CCN(C)CC4)cc3)c3ccccc3oc2=O)cc1	23.4	
9.53		COc1ccc(-c2c(Nc3ccc(OCCN(C)C)cc3)c3ccc(O)cc3oc2=O)cc1	13.2	
5.86		COc1ccc(-c2c(Nc3ccc(OCCN4CCCCC4)cc3)c3ccccc3oc2=O)cc1	8.74	
11.3		CC/C(=C(\c1ccccc1)c1ccc(OCCN(C)C)cc1)c1ccccc1 [TAMOXIFEN]		
